Where two headings read alike, the source gives them in different places.

The values that follow come from patent US10807968B2, “Substituted 2-(het)arylimidazolylcarboxyamides as pesticides” (Bayer CropScience Aktiengesellschaft, priority 2016, dated 2020).

In data set [1] the test system is Myzus persicae. Kind of data set: Myzus persicae - spray test (MYZUPE), comparison with prior art. The format is in vivo. Particulars: read-out: % efficacy dat. The protocol: Myzus persicae—Spray Test (MYZUPE)
Solvent: 78.0 parts by weight of acetone • • 1.5 parts by weight of dimethylformamide
(§1) Emulsifier: alkylaryl polyglycol ether
To produce a suitable preparation of active compound, 1 part by weight of active compound is dissolved using the specified parts by weight of solvent and made up with water containing an emulsifier concentration of 1000 ppm until the desired concentration is attained. To produce further test concentrations, the formulation is diluted with emulsifier-containing water.
Discs of Chinese cabbage leaves (Brassica pekinensis) infested by all stages of the green peach aphid (Myzus persicae) are sprayed with an active compound preparation of the desired concentration.
After the desired period of time, the efficacy in % is determined. 100% means that all the aphids have been killed; 0% means that no aphids have been killed.

In data set [2] the test system is Myzus persicae. Kind of data set: Myzus persicae - oral test (MYZUPE O), comparison with prior art. The format is in vivo. Particulars: 120 h, read-out: % efficacy dat. On the procedure:
Myzus persicae—Oral Test (MYZUPE O)
(§2) Solvent: 100 parts by weight of acetone
To produce a suitable preparation of active compound, 1 part by weight of active compound is dissolved using the specified parts by weight of solvent and made up with water until the desired concentration is attained.
50 μl of the active compound preparation are transferred into microtitre plates and made up to a final volume of 200 μl with 150 μl of IPL41 insect medium (33%+15% sugar). Subsequently, the plates are sealed with parafilm, which a mixed population of green peach aphids (Myzus persicae) within a second microtitre plate is able to puncture and imbibe the solution through it.
After 5 or 6 days (dat), the efficacy in % is determined. 100% means that all the aphids have been killed; 0% means that no aphids have been killed.

The nature of data set [3]: log P determination by HPLC on reversed-phase (C18) columns, OECD Guideline 117. Particulars: for chromatographic logP: reversed-phase (C18) HPLC column. The format is physicochemical. The protocol:
The log P values were determined in accordance with OECD Guideline 117 (EC Directive 92/69/EEC) by HPLC (high-performance liquid chromatography) using reversed-phase (RP) columns (C18), by the following methods:
[a] The LC-MS determination in the acidic range was carried out at pH 2.7 with 0.1% aqueous formic acid and acetonitrile (contains 0.1% formic acid) as mobile phases; linear gradient from 10% acetonitrile to 95% acetonitrile.
[b] LC-MS determination in the neutral range was carried out at pH 7.8 with 0.001 molar aqueous ammonium hydrogencarbonate solution and acetonitrile as mobile phases; linear gradient from 10% acetonitrile to 95% acetonitrile.

The test system of data set [4] is Myzus persicae. Kind of data set: Myzus persicae - spray test (Chinese cabbage leaf discs). The format is in vivo. The conditions noted are these: 500 g/ha, after 6 days; for pest or weed control at 500 g/ha: Myzus persicae, foliar, 144 h, read-out: efficacy in % (aphids killed). On the procedure:
Myzus persicae—Spray Test
Solvent: 78 parts by weight of acetone • • 1.5 parts by weight of dimethylformamide
as §1
To produce a suitable preparation of active compound, 1 part by weight of active compound is dissolved using the specified parts by weight of solvent and made up with water containing an emulsi fier concentration of 1000 ppm until the desired concentration is attained. To produce further test concentrations, the formulation is diluted with emulsifier-containing water.
Discs of Chinese cabbage leaves (Brassica pekinensis) infested by all stages of the green peach aphid (Myzus persicae) are sprayed with an active compound formulation of the desired concentration.
After 6 days, the efficacy in % is determined. 100% means that all the aphids have been killed; 0% means that no aphids have been killed.

The test system of data set [5] is Myzus persicae. Kind of data set: Myzus persicae - oral test. The format is in vivo. The conditions noted are these: after 5 days; for pest or weed control at 20 ppm: Myzus persicae, 120 h, read-out: efficacy in % (aphids killed); for efficacy in % (aphids killed): 20 ppm. On the procedure:
as §2
Subsequently, the plates are sealed with parafilm, which a mixed population of green peach aphids (Myzus persicae) within a second microtitre plate is able to puncture and imbibe the solution through it.
After 5 days, the efficacy in % is determined. 100% means that all the aphids have been killed; 0% means that no aphids have been killed.

In data set [6] the test system is Myzus persicae. Kind of data set: Myzus persicae - spray test (bell pepper plants). The format is in vivo. The conditions noted are these: 20 ppm, after 6 days. The protocol:
Myzus persicae—Spray Test Solvent: 14 parts by weight of dimethylformamide Emulsifier: alkylaryl polyglycol ether […] To produce further test concentrations, the formulation is diluted with emulsifier-containing water. If the addition of ammonium salts or/and penetrants is required, these are each added in a concentration of 1000 ppm to the formulation solution. Bell pepper plants (Capsicum annuum) severely infested with the green peach aphid (Myzus persicae) are treated by spraying with the active compound formulation in the desired concentration.

Setting [7] is: 144 h, MYZUPE, 100 g ai/ha, 6 dat.
Where [8] appears, read: pH 2.7, HPLC, acidic range pH 2.7, 0.1% aqueous formic acid/acetonitrile, read-out: logp-acidic.
[9] abbreviates: pH 7.8, HPLC, neutral range pH 7.8, 0.001 molar aqueous ammonium hydrogencarbonate/acetonitrile, read-out: logp-neutral.
The mark [10] stands for this setting: HPLC, acidic range pH 2.7, 0.1% aqueous formic acid/acetonitrile.
Setting [11] is: 120 h, MYZUPE, 100 g ai/ha, 5 dat.

On to `Cc1nc(C(=O)Nc2cccnc2)c[nH]1` [Comparative Ex. 1, reference compound], for which the Emax at 100 g/ha in data set [1] (MYZUPE, 100 g ai/ha, 5/6 dat) is 0%. The Emax at 4 ppm in data set [2] (MYZUPE O, 4 ppm, 5 dat) was 0%.
For the compound `O=C(Nc1cccnc1)c1c[nH]cn1` [Comparative Ex. 2, reference compound], the Emax at 100 g/ha in data set [1] (setting [7]) stood at 0%. For the same compound, the Emax at 4 ppm in data set [2] (MYZUPE O, 4 ppm, 5 dat) was determined as 0%.
For `CN(C(=O)c1cnc(-c2ncccn2)n1C)c1cccnc1` [Example 4], the chromatographic logP was 0.35 in data set [3] (setting [8]) and 0.73 in data set [3] (setting [9]). Moreover, the pest or weed control at 500 g/ha in data set [4] was found to be 90%. Moreover, the pest or weed control at 20 ppm in data set [5] turned out to be 100%. Also, the Emax at 100 g/ha in data set [1] (setting [7]) came out at 90%. In data set [2] (MYZUPE O, 4 ppm, 5 dat), the Emax at 4 ppm stood at 100%.
`CN(C(=O)c1cnc(-c2ccc(Cl)cc2Cl)n1C)c1cccnc1` [Example 12] registered a logp-acidic in data set [3] (setting [10]) of 1.66. Besides, the “efficacy in % (aphids killed)” value in data set [5] is given as 100%. The “kill in % (aphids killed)” value in data set [6] is reported as 100%.
For `CN(C(=O)c1cnc(-c2ccc(C#N)c(C(F)(F)F)c2)n1C)c1cccnc1` [Example 16], the Emax at 100 g/ha in data set [1] (144 h) worked out at 90%. In data set [2], the Emax at 4 ppm came to 100%.
With `CN(C(=O)c1cnc(-c2cncc(C#N)c2)n1C)c1cccnc1` [Example 64], the chromatographic logP was found to be 0.75 in data set [3] (setting [8]) and 0.98 in data set [3] (setting [9]). Also, in data set [4], the pest or weed control at 500 g/ha was found to be 90%. Further, the pest or weed control at 20 ppm in data set [5] came to 100%. For the same compound, in data set [1] (120 h), the Emax at 100 g/ha turned out to be 90%. In addition, the Emax at 4 ppm in data set [2] was 100%.
Consider `CN(C)c1ncc(-c2ncc(C(=O)N(C)c3cccnc3)n2C)cc1C#N` [Example 65], for which the chromatographic logP in data set [3] (setting [8]) was 1.1; in data set [3] (setting [9]) it was 1.5. Besides, in data set [4], the pest or weed control at 500 g/ha was found to be 100%. Further, the pest or weed control at 20 ppm in data set [5] was 100%. Also, the Emax at 100 g/ha in data set [1] (setting [11]) came to 90%. For the same compound, the Emax at 4 ppm in data set [2] (MYZUPE O, 4 ppm, 5 dat) amounted to 100%.
Consider `COc1ncc(-c2ncc(C(=O)N(C)c3cccnc3)n2C)cc1C#N` [Example 68], for which the chromatographic logP worked out at 1.2 in data set [3] (setting [8]) and 1.44 in data set [3] (setting [9]). Also, in data set [4], the pest or weed control at 500 g/ha came to 100%. The pest or weed control at 20 ppm in data set [5] is 100%. In data set [1] (setting [11]), the Emax at 100 g/ha is 100%. Also, in data set [2] (MYZUPE O, 4 ppm, 5 dat), the Emax at 4 ppm was found to be 100%.
As to `COc1cccc(-c2ncc(C(=O)N(C)c3cccnc3)n2C)n1` [Example 78], the chromatographic logP came to 1.23 in data set [3] (setting [8]) and 1.6 in data set [3] (setting [9]). In data set [4], the pest or weed control at 500 g/ha is 90%. The pest or weed control at 20 ppm in data set [5] turned out to be 100%. The Emax at 100 g/ha in data set [1] (setting [11]) was 70%. Moreover, in data set [2] (MYZUPE O, 4 ppm, 5 dat), the Emax at 4 ppm worked out at 100%.
`COc1ccc(-c2ncc(C(=O)N(C)c3cccnc3)n2C)c(OC)n1` [Example 81]: the chromatographic logP in data set [3] (setting [8]) is 0.89; in data set [3] (setting [9]), 1.69. Further, the pest or weed control at 500 g/ha in data set [4] is 100%. For the same compound, in data set [5], the pest or weed control at 20 ppm was determined as 100%. For the same compound, the Emax at 100 g/ha in data set [1] (setting [11]) was 70%. Further, the Emax at 4 ppm in data set [2] (MYZUPE O, 4 ppm, 5 dat) was 70%.
`COc1ncc(Cl)cc1-c1ncc(C(=O)N(C)c2cccnc2)n1C` [Example 87]: the chromatographic logP in data set [3] (setting [8]) came to 1.35; in data set [3] (setting [9]), 1.64. The pest or weed control at 500 g/ha in data set [4] was found to be 100%. In data set [5], the pest or weed control at 20 ppm turned out to be 100%. Moreover, in data set [1] (setting [11]), the Emax at 100 g/ha amounted to 90%. The Emax at 4 ppm in data set [2] (MYZUPE O, 4 ppm, 5 dat) turned out to be 100%.
Take `CCOc1ncccc1-c1ncc(C(=O)N(C)c2cccnc2)n1C` [Example 92]: the logp-acidic in data set [3] (pH 2.7) turned out to be 0.8. In data set [3] (pH 7.8), the logp-neutral is 1.43. The “efficacy in % (aphids killed)” value is listed as 90% in data set [4] and 100% in data set [5].
`COc1cc(-c2ncc(C(=O)N(C)c3cccnc3)n2C)cnc1OC` [Example 93]: in data set [3] (pH 2.7), the logp-acidic stood at 0.66. In addition, the logp-neutral in data set [3] (pH 7.8) was determined as 1.28. For the same compound, the “efficacy in % (aphids killed)” value was 90% in data set [4] and 100% in data set [5].
Take `COc1cc(-c2ncc(C(=O)N(C)c3cccnc3)n2C)ccn1` [Example 94]: in data set [3] (pH 2.7), the logp-acidic turned out to be 1. This compound also displayed a logp-neutral in data set [3] (pH 7.8) of 1.26. Further, the “efficacy in % (aphids killed)” value in data set [4] is given as 90%; in data set [5], 100%.
The corresponding values for `COc1ncc(-c2ncc(C(=O)N(C)c3cccnc3)n2C)cc1C(F)(F)F` [Example 95] are 1.75, 2, 100% and 100%.
For `COc1cc(-c2ncc(C(=O)N(C)c3cccnc3)n2C)cc(OC)n1` [Example 97], in that order: 1.37, 1.67, 100% and 100%.
Take `COc1cc(-c2ncc(C(=O)N(C)c3cccnc3)n2C)cc(C(F)(F)F)n1` [Example 99]: the chromatographic logP was 2.05 in data set [3] (setting [8]) and 2.23 in data set [3] (setting [9]). In data set [4], the pest or weed control at 500 g/ha was found to be 90%. Also, the pest or weed control at 20 ppm in data set [5] was determined as 100%. Moreover, the Emax at 100 g/ha in data set [1] (setting [11]) amounted to 70%. Besides, the Emax at 4 ppm in data set [2] (MYZUPE O, 4 ppm, 5 dat) was determined as 100%.
For the compound `COc1cc(C#N)cc(-c2ncc(C(=O)N(C)c3cccnc3)n2C)c1` [Example 100], the logp-acidic in data set [3] (setting [10]) amounted to 1.34. The logp-neutral in data set [3] (HPLC, neutral range pH 7.8, 0.001 molar aqueous ammonium hydrogencarbonate/acetonitrile) was 1.57. Also, the “efficacy in % (aphids killed)” value in data set [4] was 90%; in data set [5], 100%.
Compound `COc1ncc(F)cc1-c1ncc(C(=O)N(C)c2cccnc2)n1C` [Example 101] came in with a logp-acidic in data set [3] (pH 2.7) of 0.91. In data set [3] (pH 7.8), this compound displayed a logp-neutral of 1.38. Moreover, the “efficacy in % (aphids killed)” value in data set [4] and in data set [5] was 100% in each case.
In data set [3] (pH 2.7), `CC(C)Oc1ccc(-c2ncc(C(=O)N(C)c3cccnc3)n2C)cn1` [Example 102] gave a logp-acidic of 1.21. In data set [3] (pH 7.8), this compound yielded a logp-neutral of 1.79. Moreover, the results for the “efficacy in % (aphids killed)” value in data set [4] and in data set [5] were 90% and 100%, respectively.
For `COc1ccc(-c2ncc(C(=O)N(C)c3cccnc3)n2C)cn1` [Example 103], in that order: 0.58, 1.25, 100% and 100%.
For `CN(C(=O)c1cnc(-c2ccccc2OCC(N)=O)n1C)c1cccnc1` [Example 104], in that order: 0.23, 1.03, 100% and 100%.
With `CN(C(=O)c1cnc(-c2ncccc2Cl)n1C)c1cccnc1` [Example 106], in data set [3] (pH 2.7), the logp-acidic is 0.75. In addition, in data set [3] (pH 7.8), the logp-neutral turned out to be 1.1. Further, the “efficacy in % (aphids killed)” value in data set [4] and in data set [5] was 90% in each case.
